Laboratory results taken from PubChem BioAssay AID2060503 (Molecular Pharmacology Branch, DTP, NCI, 2025).

Test system: 817829-284-R-J1-PDC complex spheroids, viability
Assay: Anticancer human tumor 817829-284-R-J1-PDC patient-derived colon adenocarcinoma cell line growth inhibition [GQUAD]
Conditions: for IC50: curve of first compound; for viability, T/C: stronger effect = lower value
Procedure, shortened: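 Viability of tumor cells grown as complex spheroids with endothelial and stromal cells, exposed to drug combinations. Top concentration at or near clinical Cmax (else 10 microM), diluted in half-log increments.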

[1] = second compound 0.0316 µM, first compound 0.0316 µM
[2] = second compound 0.0316 µM, first compound 0.1 µM
[3] = second compound 0.0316 µM, first compound 0.316 µM
[4] = second compound 0.0316 µM, first compound 1 µM
[5] = second compound 0.0316 µM, first compound 3.16 µM
[6] = second compound 0.0316 µM, first compound 10 µM
[7] = second compound 0.1 µM, first compound 0.0316 µM
[8] = second compound 0.1 µM, first compound 0.1 µM
[9] = second compound 0.1 µM, first compound 0.316 µM
[10] = second compound 0.1 µM, first compound 1 µM
[11] = second compound 0.1 µM, first compound 3.16 µM
[12] = second compound 0.1 µM, first compound 10 µM
[13] = second compound 0.316 µM, first compound 0.0316 µM
[14] = second compound 0.316 µM, first compound 0.1 µM
[15] = second compound 0.316 µM, first compound 0.316 µM
[16] = second compound 0.316 µM, first compound 1 µM
[17] = second compound 0.316 µM, first compound 3.16 µM
[18] = second compound 0.316 µM, first compound 10 µM
[19] = second compound 1 µM, first compound 0.0316 µM
[20] = second compound 1 µM, first compound 0.1 µM
[21] = second compound 1 µM, first compound 0.316 µM
[22] = second compound 1 µM, first compound 1 µM
[23] = second compound 1 µM, first compound 3.16 µM
[24] = second compound 1 µM, first compound 10 µM
[25] = second compound 3.16 µM, first compound 0.0316 µM
[26] = second compound 3.16 µM, first compound 0.1 µM
[27] = second compound 3.16 µM, first compound 0.316 µM
[28] = second compound 3.16 µM, first compound 1 µM
[29] = second compound 3.16 µM, first compound 3.16 µM
[30] = second compound 3.16 µM, first compound 10 µM
[31] = second compound 10 µM, first compound 0.0316 µM
[32] = second compound 10 µM, first compound 0.1 µM
[33] = second compound 10 µM, first compound 0.316 µM
[34] = second compound 10 µM, first compound 1 µM
[35] = second compound 10 µM, first compound 3.16 µM
[36] = second compound 10 µM, first compound 10 µM
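Also: spheroids exposed to agents for 7 days before readout.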
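For viability, T/C in this document: percent viability relative to DMSO vehicle control taken as 100%.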

Work on `C=CC(=O)N1CCN(c2nc(=O)n(-c3c(C)ccnc3C(C)C)c3nc(-c4c(O)cccc4F)c(F)cc23)C(C)C1` (stereo unspecified) + Cc1cnc(CNC(=O)c2c(=O)c3ccc(N4CCCN(C)CC4)nc3n3c2sc2ccccc23)cn1 yielded an IC50 (second compound 0.0316 µM) of 7980 nM, an IC50 (second compound 0.1 µM) of under 31.6 nM and an IC50 (second compound 0.316 µM) of under 31.6 nM. For the same compound, the IC50 (second compound 1 µM) was under 31.6 nM, the IC50 (second compound 3.16 µM) was under 31.6 nM and the IC50 (second compound 10 µM) was under 31.6 nM. For the same compound, the viability, T/C [1] was 87.4%, the viability, T/C [2] was 59.1% and the viability, T/C [3] was 90.8%. It also gave a viability, T/C [4] of 55.7%, a viability, T/C [5] of 76.5% and a viability, T/C [6] of 44.3%. The viability, T/C [7] was 34.2%, the viability, T/C [8] was 38.1% and the viability, T/C [9] was 30.2%. The viability, T/C [10] was 34.2%, the viability, T/C [11] was 29.9% and the viability, T/C [12] was 26.8%. The viability, T/C [13] was 26.6%, the viability, T/C [14] was 28.8% and the viability, T/C [15] was 28.4%. The viability, T/C [16] was 24.9%, the viability, T/C [17] was 29.5% and the viability, T/C [18] was 20.5%. For the same compound, the viability, T/C [19] was 18.8%, the viability, T/C [20] was 27.1% and the viability, T/C [21] was 22.6%. The viability, T/C [22] was 21.1%, the viability, T/C [23] was 24.3% and the viability, T/C [24] was 19.6%. It also gave a viability, T/C [25] of 21.8%, a viability, T/C [26] of 21.3% and a viability, T/C [27] of 22.5%. It also gave a viability, T/C [28] of 19.1%, a viability, T/C [29] of 16.7% and a viability, T/C [30] of 16.9%. The viability, T/C [31] was 0.19%, the viability, T/C [32] was 0.21% and the viability, T/C [33] was 0.19%. For the same compound, the viability, T/C [34] was 0.19%, the viability, T/C [35] was 0.2% and the viability, T/C [36] was 0.19%.
`CCc1c2c(nc3ccc(O)cc13)-c1cc3c(c(=O)n1C2)COC(=O)[C@]3(O)CC` + Cc1cnc(CNC(=O)c2c(=O)c3ccc(N4CCCN(C)CC4)nc3n3c2sc2ccccc23)cn1 gave an IC50 (second compound 0.0316 µM) of under 0.999 nM, an IC50 (second compound 0.1 µM) of under 0.999 nM and an IC50 (second compound 0.316 µM) of under 0.999 nM. For the same compound, the IC50 (second compound 1 µM) was under 0.999 nM, the IC50 (second compound 3.16 µM) was under 0.999 nM and the IC50 (second compound 10 µM) was under 0.999 nM. It also gave a viability, T/C (second compound 0.0316 µM, first compound 0.000999 µM) of 40.3%, a viability, T/C (second compound 0.0316 µM, first compound 0.00316 µM) of 25.9% and a viability, T/C (second compound 0.0316 µM, first compound 0.00999 µM) of 28.9%. It also gave a viability, T/C [1] of 14.1%, a viability, T/C (second compound 0.0316 µM, first compound 0.0999 µM) of 8.12% and a viability, T/C [3] of 3.77%. For the same compound, the viability, T/C (second compound 0.1 µM, first compound 0.000999 µM) was 33.5%, the viability, T/C (second compound 0.1 µM, first compound 0.00316 µM) was 29.6% and the viability, T/C (second compound 0.1 µM, first compound 0.00999 µM) was 18.2%. The viability, T/C [7] was 15.5%, the viability, T/C (second compound 0.1 µM, first compound 0.0999 µM) was 6.99% and the viability, T/C [9] was 2.92%. The viability, T/C (second compound 0.316 µM, first compound 0.000999 µM) was 21.6%, the viability, T/C (second compound 0.316 µM, first compound 0.00316 µM) was 27.2% and the viability, T/C (second compound 0.316 µM, first compound 0.00999 µM) was 22%. For the same compound, the viability, T/C [13] was 14.4%, the viability, T/C (second compound 0.316 µM, first compound 0.0999 µM) was 7.47% and the viability, T/C [15] was 2.52%. For the same compound, the viability, T/C (second compound 1 µM, first compound 0.000999 µM) was 19.5%, the viability, T/C (second compound 1 µM, first compound 0.00316 µM) was 25.2% and the viability, T/C (second compound 1 µM, first compound 0.00999 µM) was 17.8%. The viability, T/C [19] was 13.5%, the viability, T/C (second compound 1 µM, first compound 0.0999 µM) was 6.88% and the viability, T/C [21] was 0.52%. It also gave a viability, T/C (second compound 3.16 µM, first compound 0.000999 µM) of 20.3%, a viability, T/C (second compound 3.16 µM, first compound 0.00316 µM) of 17.8% and a viability, T/C (second compound 3.16 µM, first compound 0.00999 µM) of 15.5%. It also gave a viability, T/C [25] of 10.7%, a viability, T/C (second compound 3.16 µM, first compound 0.0999 µM) of 3.99% and a viability, T/C [27] of 0.15%. The viability, T/C (second compound 10 µM, first compound 0.000999 µM) was 0.09%, the viability, T/C (second compound 10 µM, first compound 0.00316 µM) was 0.14% and the viability, T/C (second compound 10 µM, first compound 0.00999 µM) was 0.17%. For the same compound, the viability, T/C [31] was 0.14%, the viability, T/C (second compound 10 µM, first compound 0.0999 µM) was 0.16% and the viability, T/C [33] was 0.16%.
`COc1cc(C2c3cc4c(cc3C(OC3OC5COC(C)OC5C(O)C3O)C3COC(=O)C23)OCO4)cc(OC)c1O` (stereo unspecified) + Cc1cnc(CNC(=O)c2c(=O)c3ccc(N4CCCN(C)CC4)nc3n3c2sc2ccccc23)cn1 gave an IC50 (second compound 0.0316 µM) of 39.3 nM, an IC50 (second compound 0.1 µM) of under 31.6 nM and an IC50 (second compound 0.316 µM) of under 31.6 nM. For the same compound, the IC50 (second compound 1 µM) was under 31.6 nM, the IC50 (second compound 3.16 µM) was under 31.6 nM and the IC50 (second compound 10 µM) was under 31.6 nM. For the same compound, the viability, T/C [1] was 57.3%, the viability, T/C [2] was 30.7% and the viability, T/C [3] was 35.5%. For the same compound, the viability, T/C [4] was 23.1%, the viability, T/C [5] was 15.1% and the viability, T/C [6] was 7.07%. The viability, T/C [7] was 30.4%, the viability, T/C [8] was 31.3% and the viability, T/C [9] was 22.9%. For the same compound, the viability, T/C [10] was 24.6%, the viability, T/C [11] was 15% and the viability, T/C [12] was 6.35%. The viability, T/C [13] was 22.4%, the viability, T/C [14] was 27.7% and the viability, T/C [15] was 23.2%. It also gave a viability, T/C [16] of 21%, a viability, T/C [17] of 11.9% and a viability, T/C [18] of 7.02%. The viability, T/C [19] was 18.7%, the viability, T/C [20] was 21.1% and the viability, T/C [21] was 18.8%. For the same compound, the viability, T/C [22] was 22.5%, the viability, T/C [23] was 12.2% and the viability, T/C [24] was 5.25%. The viability, T/C [25] was 19.6%, the viability, T/C [26] was 22.5% and the viability, T/C [27] was 19.5%. It also gave a viability, T/C [28] of 15.9%, a viability, T/C [29] of 9.99% and a viability, T/C [30] of 5.08%. It also gave a viability, T/C [31] of 0.08%, a viability, T/C [32] of 0.12% and a viability, T/C [33] of 0.15%. The viability, T/C [34] was 0.11%, the viability, T/C [35] was 0.15% and the viability, T/C [36] was 0.14%.
